The EC50 is the concentration that produces a half-maximal response. A higher EC50 goes with weaker potency. Usually Cmax stands for the highest concentration seen after dosing. By Tmax is commonly meant the time at which the peak concentration occurs.

Like-named read-outs stand apart in the source and are kept apart here.

Here are results for 13 molecules from patent publication US8193234B2, “Compounds, compositions and methods of using same for modulating uric acid levels” (Ardea Biosciences, Inc., priority 2008, dated 2012).

One data set deals with T1, hURAT1 Transporter (Homo sapiens, UniProt Q96S37).
T1 construct: Full-length human URAT1 gene (SLC22A12) was subcloned from plasmid pCMV6-XL5 (Origene)
T1 sequence (Q96S37 1-553): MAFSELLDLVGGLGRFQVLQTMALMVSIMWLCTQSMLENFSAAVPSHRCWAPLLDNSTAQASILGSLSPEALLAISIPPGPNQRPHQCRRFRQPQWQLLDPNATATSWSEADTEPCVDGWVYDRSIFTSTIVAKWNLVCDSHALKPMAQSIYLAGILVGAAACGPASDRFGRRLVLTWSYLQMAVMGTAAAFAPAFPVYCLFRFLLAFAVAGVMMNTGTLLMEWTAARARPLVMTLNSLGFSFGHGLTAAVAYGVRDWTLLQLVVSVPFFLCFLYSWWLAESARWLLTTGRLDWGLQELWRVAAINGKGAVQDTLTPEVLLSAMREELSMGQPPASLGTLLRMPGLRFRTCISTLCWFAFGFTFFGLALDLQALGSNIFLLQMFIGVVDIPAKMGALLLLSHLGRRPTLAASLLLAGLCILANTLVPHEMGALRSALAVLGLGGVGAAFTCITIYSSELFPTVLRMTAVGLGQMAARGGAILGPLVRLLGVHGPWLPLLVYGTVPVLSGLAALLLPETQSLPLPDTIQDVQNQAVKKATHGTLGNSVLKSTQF
As to the kind of experiment: Uric Acid Uptake Assay (14C-uric acid uptake in HEK293/urat1 cells). Type of data set: cell-based. The conditions noted are these: 40 μM C14 uric acid, 10 minutes at room temperature. The source says: Creation of Stable Cell Lines Expressing hURAT1 Transporter: Full-length human URAT1 gene (SLC22A12) was subcloned from plasmid pCMV6-XL5 (Origene) into eukaryotic expression plasmid pCMV6/Neo (Origene) using Not I restriction sites. Gene sequencing confirmed the sequence of hURAT1 as outlined in Genbank (Accession #NM_144585.2). HEK293 human embryonic kidney cells (ATCC #CRL-1573) were propagated in EMEM tissue culture medium as described by ATCC in an atmosphere of 5% CO2 and 95% air. Transfections of HEK293 cells with the pCMV6/Neo/URAT1 construct were performed using L2000 transfection reagent (Invitrogen) as described by the manufacturer. After 24 h the transfected cells were split into 10 cm tissue culture plates and grown for 1 day after which the medium was replaced with fresh growth medium containing G418 (Gibco) at 0.5 mg/ml final concentration. Drug-resistant colonies were selected after approximately 8 days and then tested for ^14C-uric acid transport activity. The HEK293/urat1 cells are plated on Poly-D-Lysine Coated 96-well Plates at a density of 75,000 cells per well.
Cells were grown overnight (20-26 hours) at 37° C. in an incubator. Plates were allowed to come to room temperature and media was washed out with one wash of 250 μl of Wash Buffer (125 mM Na Gluconate, 10 mM Hepes ph 7.3). Compound or vehicle is added in assay buffer with C14 Uric Acid for a final concentration of 40 μM Uric Acid with a specific activity of 54 mCi/mmol. Assay Buffer is 125 mM Sodium Gluconate, 4.8 mM Potassium Gluconate, 1.2 mM Potassium phosphate, monobasic, 1.2 mM magnesium sulfate, 1.3 mM Ca Gluconate, 5.6 mM Glucose, 25 mM HEPES, pH 7.3. Plates were incubated at room temperature for 10 minutes then washed 3 times with 50 μl Wash Buffer and 3 times with 250 μl Wash Buffer. Microscint 20 Scintillation Fluid was added and plates were incubated overnight at 45° C. to equilibrate. Plates are then read on the TopCount Plate Reader and an EC50 value generated. (See Enomoto et al, Nature, 2002, 417, 447-451 and Anzai et al, J. Biol. Chem., 2004, 279, 45942-45950).
Compounds prepared as described herein, were examined according to the procedure described above and EC50 values generated. […] (N/A means data not available).

For data set [1] the following is noted: background statement, in certain instances; cited from earlier work.
Data set [2] in a line: PO Dosing in Rats: urinary excretion profile. Type of data set: in vivo, Male Sprague-Dawley Rats. The conditions noted are these: analyte = dosed compound itself in urine, PO 3 mg/kg, male rats. The protocol: (§1) Compounds prepared as described in examples 1, 3, 7, 8, and 9 are administered PO to Male Sprague-Dawley Rats (250 grams; 3 animals per test group). The test compounds are dissolved in aqueous sodium hydroxide solution (0.2N), brought up to volume with phosphate buffered saline to a concentration of 0.6 mg/mL, and PO administered to the animals at a concentration of 3 mg/kg (5 mL/kg). Plasma samples are removed at 0.25, 0.5, 1, 3, 6, 12 and 24 hr after initial dose and analyzed for presence of compound and possible metabolite. Urine samples are also collected and analyzed for parent compound and/or metabolite.
(§2) Note that in some instances, 2-(5-Bromo-1-(4-cyanonaphthalen-1-yl)-1H-imidazol-2-ylthio)acetic acid (eg 1) is a possible in vivo metabolite of the compounds described in examples 2-9.

A short description of data set [3]: PO Dosing in Rats: plasma profile. Type of data set: in vivo, Male Sprague-Dawley Rats. To be noted: for Cmax / Tmax / half-life / AUC(0-t): Sprague-Dawley, rat; for Cmax / Tmax / half-life / Clast: analyte = dosed compound itself in plasma; for half-life: read-out: t½ (converted); for AUC t = 0_6, share in brackets / AUC t = 12_24, share in brackets / AUC t = _12, share in brackets: share of AUC 0_24; for AUC(0-t): male, plasma, po, 3 mg/kg. The protocol:
as §1, §2

Setting [4] is: footnote *: plasma, not urinary, distribution, analyte = dosed compound, PO 3 mg/kg, male rats.
Where [5] appears, read: analyte = dosed compound itself.
Where [6] appears, read: analyte = dosed compound itself, PO 3 mg/kg, male rats, read-out: AUC t = 0_6.
Setting [7] is: analyte = dosed compound itself, PO 3 mg/kg, male rats, read-out: AUC t = 0_24.
Setting [8] is: analyte = dosed compound itself, PO 3 mg/kg, male rats, read-out: AUC t = 12_24.
Setting [9] is: analyte = dosed compound itself, PO 3 mg/kg, male rats, read-out: AUC t = _12.

Take `Cc1cnc(SCC(=O)O)n1-c1ccc(N(C)C)c2c1CCCC2`: the EC50 at hURAT1 Transporter lay within 1000 to 30000 nM.

Consider `Oc1ncnc2[nH]ncc12` [Allopurinol, allopurinol], for which the “incidence of side effects, of all individuals treated with the drug” value in data set [1] is recorded as 20%.

For the molecule `N#Cc1ccc(-n2c(Br)cnc2SCC(=O)O)c2ccccc12` [Example 1, 2-(5-Bromo-1-(4-cyanonaphthalen-1-yl)-1H-imidazol-2-ylthio)acetic acid], at hURAT1 Transporter, the EC50 was in the range of 1 to 1000 nM. The “Total Urinary Excretion % of dose” value in data set [2] is recorded as 4.2 % of dose. The same molecule gave a BA in data set [3] (analyte = dosed compound itself, PO 3 mg/kg, male rats) of 30%. Besides, in data set [3] (setting [4]), the “Plasma Distribution (%) 0-6 h” value is 85* %, the “Plasma Distribution (%) 6-12 h” value is given as 11* % and the “Plasma Distribution (%) 12-24 h” value was 4* %.

In the case of `CCOC(=O)CNC(=O)CSc1ncc(Br)n1-c1ccc(C#N)c2ccccc12` [Example 2, Ethyl 2-(2-(5-bromo-1-(4-cyanonaphthalen-1-yl)-1H-imidazol-2-ylthio)acetamido)acetate], the EC50 on hURAT1 Transporter was 1 to 1000 nM.

With `N#Cc1ccc(-n2c(Br)cnc2SCC(=O)NCC(=O)O)c2ccccc12` [Example 3, 2-(2-(5-Bromo-1-(4-cyanonaphthalen-1-yl)-1H-imidazol-2-ylthio)acetamido)acetic acid], the EC50 on hURAT1 Transporter lay in the range of 1000 to 30000 nM. In data set [2], the “Total Urinary Excretion % of dose” value is on record as 7 % of dose, the “Urinary Distribution (%) 0-6 h” value amounted to 74%, the “Urinary Distribution (%) 6-12 h” value is 20% and the “Urinary Distribution (%) 12-24 h” value is recorded as 7%. Also, in data set [3] (PO 3 mg/kg, male rats), the peak concentration (Cmax) worked out at 56.6 ng/mL, the Tmax was 0.833 h, the half-life is 3.49 h and the Clast turned out to be 0.518 ng/mL. In data set [3] (setting [5]), the “AUC t = 0_6, share in brackets” value was “(58%)”; the “AUC t = 12_24, share in brackets” value is on record as “(10%)”; the “AUC t = _12, share in brackets” value is “(32%)”. Also, the AUC(0-t) in data set [3] (setting [6]) came to 145 ng·h/mL. In addition, the AUC(0-t) in data set [3] (setting [7]) was 251 ng·h/mL. Further, the AUC(0-t) in data set [3] (setting [8]) came out at 25.6 ng·h/mL. In data set [3] (setting [9]), the AUC(0-t) came out at 79.8 ng·h/mL.

On hURAT1 Transporter, `CCOC(=O)CCNC(=O)CSc1ncc(Br)n1-c1ccc(C#N)c2ccccc12` [Example 4, Ethyl 3-(2-(5-bromo-1-(4-cyanonaphthalen-1-yl)-1H-imidazol-2-ylthio)acetamido)propanoate] came in with an EC50 of 1 to 1000 nM.

The molecule `CCOC(=O)[C@H](C)NC(=O)CSc1ncc(Br)n1-c1ccc(C#N)c2ccccc12` [Example 5, (2S)-Ethyl 2-(2-(5-bromo-1-(4-cyanonaphthalen-1-yl)-1H-imidazol-2-ylthio)acetamido)propanoate] gave an EC50 on hURAT1 Transporter of 1 to 1000 nM.

Take `CCOC(=O)[C@@H](NC(=O)CSc1ncc(Br)n1-c1ccc(C#N)c2ccccc12)C(C)C` [Example 6, (2S)-Ethyl 2-(2-(5-bromo-1-(4-cyanonaphthalen-1-yl)-1H-imidazol-2-ylthio)acetamido)-3-methylbutanoate]: the EC50 on hURAT1 Transporter fell in the range of 1 to 1000 nM.

`N#Cc1ccc(-n2c(Br)cnc2SCC(=O)NCCC(=O)O)c2ccccc12` [Example 7, 3-(2-(5-bromo-1-(4-cyanonaphthalen-1-yl)-1H-imidazol-2-ylthio)acetamido)propanoic acid] came in with an EC50 at hURAT1 Transporter of 1000 to 30000 nM. In addition, in data set [2], the “Total Urinary Excretion % of dose” value was 26 % of dose, the “Urinary Distribution (%) 0-6 h” value was 63%, the “Urinary Distribution (%) 6-12 h” value is given as 30% and the “Urinary Distribution (%) 12-24 h” value is recorded as 7%.

Molecule `C[C@H](NC(=O)CSc1ncc(Br)n1-c1ccc(C#N)c2ccccc12)C(=O)O` [Example 8, (2S)-2-(2-(5-bromo-1-(4-cyanonaphthalen-1-yl)-1H-imidazol-2-ylthio)acetamido)propanoic acid] showed an EC50 at hURAT1 Transporter above 30000 nM. In addition, in data set [2], the “Total Urinary Excretion % of dose” value was 8 % of dose, the “Urinary Distribution (%) 0-6 h” value was 63%, the “Urinary Distribution (%) 6-12 h” value amounted to 32% and the “Urinary Distribution (%) 12-24 h” value is listed as 5%. Besides, in data set [3] (PO 3 mg/kg, male rats), the Cmax was found to be 110 ng/mL, the Tmax is 1 h, the half-life was 2.99 h and the Clast amounted to 0.371 ng/mL. In data set [3] (setting [5]), the “AUC t = 0_6, share in brackets” value is “(69%)”; the “AUC t = 12_24, share in brackets” value is “(13%)”; the “AUC t = _12, share in brackets” value is recorded as “(17%)”. Further, the AUC(0-t) in data set [3] (setting [6]) worked out at 339 ng·h/mL. In data set [3] (setting [7]), the AUC(0-t) amounted to 488 ng·h/mL. The AUC(0-t) in data set [3] (setting [8]) worked out at 65.2 ng·h/mL. Moreover, the AUC(0-t) in data set [3] (setting [9]) turned out to be 83.9 ng·h/mL.

`CC(C)[C@H](NC(=O)CSc1ncc(Br)n1-c1ccc(C#N)c2ccccc12)C(=O)O` [Example 9, (2S)-2-(2-(5-bromo-1-(4-cyanonaphthalen-1-yl)-1H-imidazol-2-ylthio)acetamido)-3-methylbutanoic acid] gave an EC50 at hURAT1 Transporter of 1000 to 30000 nM. For the same molecule, in data set [2], the “Total Urinary Excretion % of dose” value is on record as 1 % of dose, the “Urinary Distribution (%) 0-6 h” value was determined as 66%, the “Urinary Distribution (%) 6-12 h” value is reported as 26% and the “Urinary Distribution (%) 12-24 h” value is listed as 9%. Moreover, in data set [3] (PO 3 mg/kg, male rats), the Cmax is 25.8 ng/mL, the Tmax was found to be 2.67 h, the half-life is 2.69 h and the Clast is 4.69 ng/mL. Further, in data set [3] (setting [5]), the “AUC t = 0_6, share in brackets” value was “(49%)”; the “AUC t = 12_24, share in brackets” value is recorded as “(15%)”; the “AUC t = _12, share in brackets” value is “(36%)”. In addition, the AUC(0-t) in data set [3] (setting [6]) amounted to 91.5 ng·h/mL. Besides, the AUC(0-t) in data set [3] (setting [7]) is 187 ng·h/mL. The AUC(0-t) in data set [3] (setting [8]) was found to be 28.2 ng·h/mL. The AUC(0-t) in data set [3] (setting [9]) is 67.7 ng·h/mL.

`N#Cc1ccc(-n2c(Br)cnc2SC(F)(F)C(=O)O)c2ccccc12` [Example 10, 2-(5-Bromo-1-(4-cyanonaphthalen-1-yl)-1H-imidazol-2-ylthio)-2,2-difluoroacetic acid]: the half-maximal effective concentration (EC50) at hURAT1 Transporter was 1 to 1000 nM.

`CCCN(CCC)S(=O)(=O)c1ccc(C(=O)O)cc1` [probenecid]: in data set [1], the “individuals treated who fail to achieve reduction of serum uric acid levels<6 mg/dL” value is 25-50% and the “individuals who develop intolerance” value is reported as “one-third”.
